Consider two molecules from patent US6623766B1, “Process for insecticidal formulation effective in controlling malarial vector, mosquitoes” (Council of Scientific and Industrial Research, priority 2002, dated 2003).

This data set relates to mosquito (Anopheles stephensi) larvae. Nature of the data set: Standard WHO larvicidal test (WHO, 1981, slightly modified) on fourth-stage mosquito larvae, mortality after 24 hours. Type of data set: in vivo. On the procedure:
Essential oil (0.1 ml) obtained from plant genus Foeniculum vulgare was first mixed with Tween-80 (0.1 ml) of 0.001% concentration and then the mixture was dissolved in water to make the solution of 0.01% concentration. This solution was tested against mosquito (Anopheles stephensi) larvae in the laboratory.
Standard WHO test (WHO, 1981) was employed with slight modification in the test procedure. A single fourth-stage larva was put into each of fifty vials containing 5 ml of the got test solution of each concentration. Single vial with one larva was used in one replication. Thus a total of 50 insects were used in fifty replications. Mortality data for mosquito larvae were recorded after 24 hours.
Essential oil (0.1 ml) obtained from plant genus Mentha spicata var. viridis was first mixed with Tween-80 (0.1 ml) of 0.001% concentration and then the mixture was dissolved in water to make the solution of 0.01% concentration. This solution was tested against mosquito (Anopheles stephensi) larvae in the laboratory.
Standard WHO test (WHO, 1981) was employed with slight modification in the test procedure. A single fourth-stage larva was put into each of fifty vials containing 5 ml of the test solution of each concentration. Single vial with one larva was used in one replication. Thus a total of 50 insects were used in fifty replications. Mortality data for mosquito larvae were recorded after 24 hours.
Essential oil (0.1 ml) obtained from plant genus Zingiber officinale was first mixed with Tween-80 (0.1 ml) of 0.001% concentration and then the mixture was dissolved in water to make the solution of 0.01% concentration. This solution was tested against mosquito (Anopheles stephensi) larvae in the laboratory.
Tween-80 purchased from Hi-Media, Mumbai, India, an emulsifying agent (0.1-ml) of 0.001% concentration was dissolved in water to make the solution of 0.01% concentration. This solution was tested against mosquito (Anopheles stephensi) larvae in the laboratory.
Essential oil (0.05 ml each) obtained from plant genus Foeniculum vulgare and Mentha spicata var. viridis were first mixed with Tween-80 (0.1 ml) of 0.001% concentration and then the mixture was dissolved in water to make the solution of 0.01% concentration. This solution was tested against mosquito (Anopheles stephensi) larvae in the laboratory.
Essential oil (0.05 ml each) obtained from plant genus Foeniculum vulgare and Zingiber officinale were first mixed with Tween-80 (0.1 ml) of 0.001% concentration and then the mixture was dissolved in water to make the solution of 0.01% concentration. This solution was tested against mosquito (Anopheles stephensi) larvae in the laboratory. […]

In general, mortality refers to the percentage killed. A lower mortality goes with more survivors. Take `C/C=C\c1cc(OC)c(OC)cc1OC` [Example 14, β-Asarone]: for the setting “0.0016% concentration (standard), Anopheles stephensi larvae, Table 1 summary”, the “Mean % mortality after 24 hours” value came out at 100%. In addition, the mortality (0.0016% concentration, fourth-stage larvae, recorded after 24 hours, laboratory conditions) worked out at 100.0%.

Tween-80 [Example 4]: for the setting “in vivo”, the “Mean % mortality after 24 hours” value is 0% and the mortality is 0.0%.
